Results published in patent US20260294915A1, “COMBINATION THERAPY COMPRISING A MAT2A INHIBITOR AND A TOPOISOMERASE INHIBITOR, A SPLICING INHIBITOR SULFONAMIDE, OR A KIF18 INHIBITOR” (IDEAYA BIOSCIENCES, INC., priority 2023, published 2026).

Experiments:
Type in all cases: cell-based
SW900 = assay: 10-day proliferation (CTG), equimolar Compound A + Compound B (Example 1); settings: Homo sapiens, SW900, 240 h, 10 days, single agent or 1:1 combo; for IC30: read-out: gIC30; for IC40: read-out: gIC40; for IC50: read-out: gIC50; for IC60: read-out: gIC60; for IC70: read-out: gIC70; for IC80: read-out: gIC80; for IC90: read-out: gIC90; for IC100: read-out: gIC100
Method: (§1) A 10-day proliferation assay was performed in a panel of 5 MTAP-deficient and 2 wild type non-small cell lung and bladder cancer cell lines. Optimal cell seeding for all cell lines was determined by assessing the growth over a range of seeding densities in a 384-well format to identify conditions that permitted proliferation for 10 days. Cells were then plated at the optimal seeding density and treated with 20-point, two-fold dilution series of Compound A, sovilnesib (“Compound B”), or an equimolar combination of Compound A and Compound B. Concentrations tested for Compound A and Compound B alone or in combination ranged from 0.038 nM to 20,000 nM. A plate of cells was harvested at the time of compound addition to quantify the number of cells at the start of the combination (T0). For cell quantification, the harvested cells were lysed with Promega CellTiter-Glo (CTG) reagent according to the manufacturer's protocol and the chemiluminescent signal was detected on a Synergy Neo plate reader. CTG estimates cell number through detection of cellular ATP levels. Cells were incubated with the drug combinations at 37° C. with 5% CO2 for 10 days. Cells were then lysed with CTG and the chemiluminescent signal was measured.
(§2) CTG values obtained after the 10-day treatment were background subtracted and expressed as a percent of the T0 value. Data were plotted against compound concentration and fit with a four-parameter equation to generate dose response curves for each single agent and the equimolar combination. Growth ICx (gICx) values ranging from gIC30 to gIC100 were interpolated from the fitted curves. Synergistic growth inhibition was assessed by determination of Combination Index (CI) values at these various points across the titration using the mutually non-exclusive equation [Chou, 1983; Chou, 1981] shown below where A equals the gIC value of Compound A, B equals the gICx value of Compound B, and A+B or B+A equals the gICx value of the equimolar combination. A Combination Index value less than 1.0 was considered synergistic.
(§3) Synergy was measured for equimolar combinations of Compound A and Compound B utilizing the mutually non-exclusive Combination Index equation across gICx values ranging from gIC30-gIC100. Combination Index values are shown for: NCI-H838 (3A), SW900 (3B), RT112/84 (3C), UMUC5 (3D), and UMUC11 (3E).

UMUC5 = assay: as above; settings: 240 h, 10 days, single agent or 1:1 combo; for IC30: read-out: gIC30; for IC40: read-out: gIC40; for IC50: read-out: gIC50; for IC60: read-out: gIC60; for IC70: read-out: gIC70; for IC80: read-out: gIC80; for IC90: read-out: gIC90; for IC100: read-out: gIC100
Method: as §1, §2, §3

NCI-H520 = assay: 10-day proliferation (CTG), Compound B titration + 1000 nM Compound A, Bliss (Example 2); parameters: key: GDI on scale −100 to 100; 0 = cell number at T0
Method: (§4) A 10-day proliferation assay was performed in a panel of 5 MTAP-deficient and 2 wild type non-small cell lung and bladder cancer cell lines. Optimal cell seeding for all cell lines was determined by assessing the growth over a range of seeding densities in a 384-well format to identify conditions that permitted proliferation for 10 days. Cells were then plated at the optimal seeding density and treated with 20-point, two-fold dilution series of Compound B in combination with a 1000 nM fixed concentration of Compound A. Single agent titrations for Compound A and Compound B were included for comparison. Concentrations tested for Compound A and Compound B alone or in combination ranged from 0.038 nM to 20,000 nM. A plate of cells was harvested at the time of compound addition to quantify the number of cells at the start of the combination (T0). For cell quantification, the harvested cells were lysed with Promega CellTiter-Glo (CTG) reagent according to the manufacturer's protocol and the chemiluminescent signal was detected as described in Example 1 above. Cells were incubated with the drug combinations at 37° C. with 5% CO2 for 10 days. Cells were then lysed with CTG and the chemiluminescent signal was measured.
(§5) CTG values obtained after the 10-day treatment were background subtracted and expressed as a percent of the T0 value set at 100%. Data were plotted against compound concentration and fit with a four-parameter equation to generate single agent dose response curves. Percent inhibition was determined for each combination and single agent concentration compared to a DMSO control. In addition, the overall net growth or death of the cells was calculated and reported as a growth death index (GDI) value on a scale of −100 to 100 with the midpoint (0) being the number of cells at the beginning of the combination (T0).
(§6) Synergistic growth inhibition was assessed using the Bliss Independence model for each point of the Compound B titration in combination with 1000 nM Compound A. The observed growth inhibition at each point was compared to the predicted inhibition based on the additive activity of each single agent. Predicted inhibition was calculated using (Ea+Eb)−(Ea*Eb) where E equals the effect (inhibition) of each single agent (a and b). A difference between the observed inhibition percentage and the predicted inhibition percentage greater than 10% was considered synergistic. A Bliss score was only calculated for combinations eliciting >20% growth inhibition (GDI value <80). Since Bliss is calculated based on growth inhibition, scores within cytotoxic dose ranges may not accurately reflect synergistic cytotoxicity.
(§7) Synergy was measured across the Compound B titration with 1000 nM Compound A by Bliss Independence analysis. Bliss scores >10 are indicated by “*” and are considered synergistic. […] Synergy as reported using Bliss may be underrepresented within cytotoxic dose ranges. Growth death index values are shown for the combination titration and each single agent Compound A (Cmpd A) and Compound B (Cmpd B) on a scale of −100 to 100 with the midpoint (0) being the number of cells at the beginning of the combination (T0). Bliss and GDI values are shown for five MTAP-deficient cell lines: NCI-1H520 (6A), TCCSUP (6B).

TCCSUP = assay: as above; parameters: key: GDI on scale −100 to 100; 0 = cell number at T0
Method: as §4, §5, §6, §7

[1] = Cmpd B 0.04 nM, combo: + 1000 nM Cmpd A
[2] = Cmpd B 0.1 nM, combo: + 1000 nM Cmpd A
[3] = Cmpd B 0.2 nM, combo: + 1000 nM Cmpd A
[4] = Cmpd B 0.3 nM, combo: + 1000 nM Cmpd A
[5] = Cmpd B 0.6 nM, combo: + 1000 nM Cmpd A
[6] = Cmpd B 1.2 nM, combo: + 1000 nM Cmpd A
[7] = Cmpd B 2.4 nM, combo: + 1000 nM Cmpd A
[8] = Cmpd B 4.9 nM, combo: + 1000 nM Cmpd A
[9] = Cmpd B 9.8 nM, combo: + 1000 nM Cmpd A
[10] = Cmpd B 19.5 nM, combo: + 1000 nM Cmpd A
[11] = Cmpd B 39.1 nM, combo: + 1000 nM Cmpd A
[12] = Cmpd B 78.1 nM, combo: + 1000 nM Cmpd A
[13] = Cmpd B 156.3 nM, combo: + 1000 nM Cmpd A
[14] = Cmpd B 312.5 nM, combo: + 1000 nM Cmpd A
[15] = Cmpd B 625 nM, combo: + 1000 nM Cmpd A
[16] = Cmpd B 1250 nM, combo: + 1000 nM Cmpd A
[17] = Cmpd B 2500 nM, combo: + 1000 nM Cmpd A
[18] = Cmpd B 5000 nM, combo: + 1000 nM Cmpd A
[19] = Cmpd B 10000 nM, combo: + 1000 nM Cmpd A
[20] = Cmpd B 20000 nM, combo: + 1000 nM Cmpd A

Nc1nc(=O)n(-c2ccccc2Cl)c2nc(C(F)(F)F)ccc12 [Compound A]
IC30 (SW900): 20 µM
IC40 (SW900): 20 µM
IC50 (SW900): 20 µM
IC60 (SW900): 20 µM
IC70 (SW900): 20 µM
IC80 (SW900): 20 µM
IC90 (SW900): 20 µM
IC100 (SW900): 20 µM
IC30 (UMUC5): 0.357 µM
IC40 (UMUC5): 1.35 µM
IC50 (UMUC5): 5.16 µM
IC60 (UMUC5): 19.4 µM
IC70 (UMUC5): 20 µM
IC80 (UMUC5): 20 µM
IC90 (UMUC5): 20 µM
IC100 (UMUC5): 20 µM
GDI (NCI-H520; single agent, 1000 nM Cmpd A): 100
GDI (TCCSUP; single agent, 1000 nM Cmpd A): 88

Cc1cc(NC(=O)c2ccc(NS(=O)(=O)CCO)cc2N2CCC3(CC2)CC3)nc(N2CCC(F)(F)CC2)n1 [Compound B, N-(2-(4,4-difluoropiperidin-1-yl)-6-methylpyrimidin-4-yl)-4-((2-hydroxyethyl)sulfonamido)-2-(6-azaspiro[2.5]octan-6-yl)benzamide]
IC30 (SW900): 5.48 µM
IC40 (SW900): 8.55 µM
IC50 (SW900): 12.3 µM
IC60 (SW900): 16.6 µM
IC70 (SW900): 19.9 µM
IC80 (SW900): 20 µM
IC90 (SW900): 20 µM
IC100 (SW900): 20 µM
IC30 (UMUC5): 0.17 µM
IC40 (UMUC5): 0.194 µM
IC50 (UMUC5): 0.221 µM
IC60 (UMUC5): 0.253 µM
IC70 (UMUC5): 0.296 µM
IC80 (UMUC5): 0.37 µM
IC90 (UMUC5): 0.662 µM
IC100 (UMUC5): 20 µM
GDI (NCI-H520; [1]): 100
GDI (NCI-H520; [2]): 100
GDI (NCI-H520; [3]): 100
GDI (NCI-H520; [4]): 100
GDI (NCI-H520; [5]): 100
GDI (NCI-H520; [6]): 100
GDI (NCI-H520; [7]): 100
GDI (NCI-H520; [8]): 100
GDI (NCI-H520; [9]): 100
GDI (NCI-H520; [10]): 100
GDI (NCI-H520; [11]): 100
GDI (NCI-H520; [12]): 100
GDI (NCI-H520; [13]): 100
GDI (NCI-H520; [14]): 85
GDI (NCI-H520; [15]): 77
GDI (NCI-H520; [16]): 92
GDI (NCI-H520; [17]): 92
GDI (NCI-H520; [18]): 61
GDI (NCI-H520; [19]): 17
GDI (NCI-H520; [20]): −57
GDI (TCCSUP; [1]): 100
GDI (TCCSUP; [2]): 100
GDI (TCCSUP; [3]): 100
GDI (TCCSUP; [4]): 100
GDI (TCCSUP; [5]): 100
GDI (TCCSUP; [6]): 100
GDI (TCCSUP; [7]): 100
GDI (TCCSUP; [8]): 100
GDI (TCCSUP; [9]): 100
GDI (TCCSUP; [10]): 100
GDI (TCCSUP; [11]): 100
GDI (TCCSUP; [12]): 76
GDI (TCCSUP; [13]): 38
GDI (TCCSUP; [14]): 15
GDI (TCCSUP; [15]): 8
GDI (TCCSUP; [16]): 10
GDI (TCCSUP; [17]): 11
GDI (TCCSUP; [18]): 6
GDI (TCCSUP; [19]): −5
GDI (TCCSUP; [20]): −95
